Measurements from patent publication US11931482B2 (priority 2019, dated 2024).

Tests used:
[1] = system: Staphylococcus aureus strain MRSA USA300; test: Microdilution assay, minimum inhibitory concentration of non-coating incorporated auranofin; assay type: cell-based; conditions: TSBG, ~18 hours
Experimental: Auranofin release from PU+auranofin-coated catheters was monitored by incubating each coated catheter in 1.98 mL of tryptic soy broth supplemented with 0.25% glucose (TSBG) at 37° C. with shaking at 110 rpm. […] Heilmann et al., Infect. Immun., 64, 277-82 (1996); Lim et al., J. Bacteriol., 186, 722-729 (2004). Every twenty-four hours, the release solutions were collected and completely replaced with fresh medium. A microdilution assay, as described by Shukla & Shukla, J. Mater. Chem. B, 6, 6444-6458 (2018), was used to determine the amount of auranofin contained in the media release samples by comparing the antibacterial activity to that of known concentrations of non-coating incorporated auranofin. […] Staphylococcus aureus strain MRSA USA300 (10 μL) at a final concentration of 10^5 CFU/mL in the exponential growth phase (as determined by optical density) was added to these wells. […] Subsequently, the optical density (OD) of the samples was read at 600-nm using a Cytation3 microplate reader (BioTek, Winooski, VT, USA). The normalized bacteria density was calculated using Equation (1).
The minimum inhibitory concentration of the auranofin control against USA300 was determined as the concentration range of auranofin needed to observe a statistically significant transition of normalized bacteria density from […]. […]

[2] = system: Gram-positive pathogenic bacteria, including Mycobacterium tuberculosis, Bacillus subtilis, Enterococcus faecalis, Enterococcus faecium, Staphylococcus aureus; conditions: Hassanein et al. 2017; cited from earlier work
[3] = oral antirheumatic therapy; Egsmose et al. 1995; cited from earlier work
[4] = system: preformed Staphylococcus aureus biofilms; conditions: within two hours of exposure; Torres et al. 2016; cited from earlier work
MRSA USA300 = test: Kirby-Bauer assay, inner and outer surfaces of bisected coated catheters; assay type: cell-based; conditions: Staphylococcus aureus, read-out: average zone of inhibition diameter
Source text: To evaluate the auranofin release, the inventors used a Kirby Bauer assay to visualize the bacterial inhibition and determine if the catheter released the auranofin into the surrounding media. Coated catheters were split through the circumference of the material to expose both the inner and outer surfaces. […] The inventors then placed these catheter pieces were then placed on a bacteria-seeded agar plate with the respective surfaces face down.
Antibacterial and antibiofilm activity of PU+auranofin catheter coatings was examined against MRSA USA300, a community-associated MRSA strain. Kirby-Bauer and broth bacteria survival assays on the coated catheters and their release solutions were conducted, respectively. For the Kirby-Bauer assay, MRSA USA300 in the exponential growth phase at a concentration of 10^8 CFU/mL was spread on tryptic soy agar plates. PU+auranofin-coated and PU+auranofin-uncoated catheters were cut in half lengthwise using a scalpel. Both the inner and outer surfaces of the catheters were placed in direct contact with the bacteria seeded agar and incubated for twenty-four hours at 37° C. These plates were then photographed using a Canon PowerShot S110 digital camera (Tokyo, Japan).

Structure (SMILES) | minimum inhibitory concentration against USA300 [1] | minimum inhibitory concentration (MIC) against these bacteria [2] | cumulative toxicity during long-term treatments [3] | effect on preformed Staphylococcus aureus biofilms [4] | zone of inhibition at 30 µg/disc (MRSA USA300)
CC(=O)OCC1OC([S-])C(OC(C)=O)C(OC(C)=O)C1OC(C)=O.CCP(CC)CC.[Au+] (centres unmarked) [auranofin, Gold(+1) cation; 3,4,5-triacetyloxy-6-(acetyloxymethyl) oxane-2-thiolate; triethylphosphanium] | 0.063 mg/L | ≥ 0.25 mg/L | no cumulative toxicity | inhibit preformed Staphylococcus aureus biofilms | 
CN[C@H](CC(C)C)C(=O)N[C@H]1C(=O)N[C@@H](CC(N)=O)C(=O)N[C@H]2C(=O)N[C@H]3C(=O)N[C@H](C(=O)N[C@H](C(=O)O)c4cc(O)cc(O)c4-c4cc3ccc4O)[C@H](O)c3ccc(c(Cl)c3)Oc3cc2cc(c3O[C@@H]2O[C@H](CO)[C@@H](O)[C@H](O)[C@H]2O[C@H]2C[C@](C)(N)[C@H](O)[C@H](C)O2)Oc2ccc(cc2Cl)[C@H]1O [vancomycin] |  |  |  |  | 14.8 ± 2 mm
